Test results: ChEMBL document CHEMBL1152632, “Synthesis and evaluation of functionalized isoindigos as antiproliferative agents” (Bioorg Med Chem, 2009)
Active and inactive are the calls of the source. No cut-off for these calls is given here.

Columns and labels:
[1] = test system: K562; assay: cells; details: Homo sapiens, K562, 72 h
Description: Antiproliferative activity against human K562 cells after 72 hrs by MTT assay

[2] = test system: HCT-116; assay: cells; details: Homo sapiens, HCT-116, 72 h
Description: Antiproliferative activity against human HCT116 cells after 72 hrs by MTT assay

[3] = test system: HL-60; assay: Antiproliferative activity against human HL60 cells after 5 days by MTT assay; format: functional, cell-based; details: HL-60, 120 h
[4] = Antiproliferative activity against human IMR90 cells after 72 hrs by MTT assay; format: cell-based; details: IMR-90, 72 h
[5] = test system: Huh-7; assay: Antiproliferative activity against human HuH7 cells after 72 hrs by MTT assay; format: functional, cell-based; details: Huh-7, 72 h
[6] = molecular target: Cyclin-dependent kinase 2/cyclin A (Homo sapiens) (UniProt P24941+P20248+P78396); assay: Inhibition of CDK2/cyclin A at 10 uM by IMAP assay; format: protein-complex assay
[7] = molecular target: Tyrosine-protein kinase BTK (Homo sapiens) (UniProt Q06187); assay: Inhibition of BTK at 10 uM
[8] = molecular target: Macrophage colony-stimulating factor 1 receptor (Homo sapiens) (UniProt P07333); assay: Inhibition of CSF1R at 10 uM
[9] = molecular target: Glycogen synthase kinase-3 beta (Homo sapiens) (UniProt P49841); assay: Inhibition of GSK3-beta at 10 uM
[10] = molecular target: Hepatocyte growth factor receptor (Homo sapiens) (UniProt P08581); assay: Inhibition of MET at 10 uM
[11] = molecular target: SRSF protein kinase 3 (Homo sapiens) (UniProt Q9UPE1); assay: Inhibition of SRPK3 at 10 uM
[12] = molecular target: Mitogen-activated protein kinase 11 (Homo sapiens) (UniProt Q15759); assay: Inhibition of p38beta at 10 uM
[13] = molecular target: Mitogen-activated protein kinase 14 (Homo sapiens) (UniProt Q16539); assay: Inhibition of p38alpha at 10 uM
[14] = molecular target: Fibroblast growth factor receptor 2 (Homo sapiens) (UniProt P21802); assay: Inhibition of FGFR2 at 10 uM
[15] = molecular target: ALK tyrosine kinase receptor (Homo sapiens) (UniProt Q9UM73); assay: Inhibition of ALK at 10 uM
[16] = molecular target: RAF proto-oncogene serine/threonine-protein kinase (Homo sapiens) (UniProt P04049); assay: Inhibition of RAF1 at 10 uM
[17] = molecular target: Phosphatidylinositol 4,5-bisphosphate 3-kinase catalytic subunit gamma isoform (Homo sapiens) (UniProt P48736); assay: Inhibition of PIK3CG at 10 uM
[18] = molecular target: Tyrosine-protein kinase JAK2 (Homo sapiens) (UniProt O60674); assay: Inhibition of JAK2 at 10 uM
[19] = molecular target: Serine/threonine-protein kinase pim-3 (Homo sapiens) (UniProt Q86V86); assay: Inhibition of PIM3 at 10 uM
[20] = molecular target: Non-receptor tyrosine-protein kinase TYK2 (Homo sapiens) (UniProt P29597); assay: Inhibition of TYK2 at 10 uM
[21] = molecular target: Casein kinase I isoform gamma-2 (Homo sapiens) (UniProt P78368); assay: Inhibition of CSNK1G2 at 10 uM
[22] = molecular target: Serine/threonine-protein kinase pim-2 (Homo sapiens) (UniProt Q9P1W9); assay: Inhibition of PIM2 at 10 uM
[23] = molecular target: Tyrosine-protein kinase ABL1 (Homo sapiens) (UniProt P00519); assay: Inhibition of ABL1 at 10 uM
[24] = molecular target: Proto-oncogene tyrosine-protein kinase Src (Homo sapiens) (UniProt P12931); assay: Inhibition of SRC at 10 uM
[25] = molecular target: Epidermal growth factor receptor (Homo sapiens) (UniProt P00533); assay: Inhibition of EGFR at 10 uM
[26] = molecular target: Receptor tyrosine-protein kinase erbB-2 (Homo sapiens) (UniProt P04626); assay: Inhibition of ERBB2 at 10 uM
[27] = molecular target: Cyclin-dependent kinase 7 (Homo sapiens) (UniProt P50613); assay: Inhibition of CDK7 at 10 uM
[28] = molecular target: Platelet-derived growth factor receptor beta (Homo sapiens) (UniProt P09619); assay: Inhibition of PDGFRB at 10 uM
[29] = molecular target: TGF-beta receptor type-1 (Homo sapiens) (UniProt P36897); assay: Inhibition of TGFBR1 at 10 uM
[30] = molecular target: Cyclin-dependent kinase 9 (Homo sapiens) (UniProt P50750); assay: Inhibition of CDK9 at 10 uM
[31] = molecular target: Fibroblast growth factor receptor 3 (Homo sapiens) (UniProt P22607); assay: Inhibition of FGFR3 at 10 uM
[32] = molecular target: Cyclin-dependent kinase 2 (Homo sapiens) (UniProt P24941); assay: Inhibition of CDK2 at 10 uM
[33] = molecular target: Serine/threonine-protein kinase Chk1 (Homo sapiens) (UniProt O14757); assay: Inhibition of CHEK1 at 10 uM
[34] = molecular target: Serine/threonine-protein kinase B-raf (Homo sapiens) (UniProt P15056); assay: Inhibition of BRAF at 10 uM
[35] = molecular target: cAMP-dependent protein kinase catalytic subunit alpha (Homo sapiens) (UniProt P17612); assay: Inhibition of PKACalpha at 10 uM
[36] = molecular target: Serine/threonine-protein kinase pim-1 (Homo sapiens) (UniProt P11309); assay: Inhibition of PIM1 at 10 uM
[37] = molecular target: Dual specificity tyrosine-phosphorylation-regulated kinase 1B (Homo sapiens) (UniProt Q9Y463); assay: Inhibition of DYRK1B at 10 uM
[38] = molecular target: Dual specificity mitogen-activated protein kinase kinase 2 (Homo sapiens) (UniProt P36507); assay: Inhibition of MEK2 at 10 uM
[39] = molecular target: Insulin receptor (Homo sapiens) (UniProt P06213); assay: Inhibition of INSR at 10 uM
[40] = molecular target: Cyclin-dependent kinase 3 (Homo sapiens) (UniProt Q00526); assay: Inhibition of CDK3 at 10 uM
[41] = molecular target: Receptor tyrosine-protein kinase erbB-4 (Homo sapiens) (UniProt Q15303); assay: Inhibition of ERBB4 at 10 uM
[42] = molecular target: Receptor-type tyrosine-protein kinase FLT3 (Homo sapiens) (UniProt P36888); assay: Inhibition of FLT3 at 10 uM
[43] = molecular target: Dual specificity mitogen-activated protein kinase kinase 1 (Homo sapiens) (UniProt Q02750); assay: Inhibition of MEK1 at 10 uM
[44] = molecular target: Mast/stem cell growth factor receptor Kit (Homo sapiens) (UniProt P10721); assay: Inhibition of KIT at 10 uM
[45] = molecular target: Platelet-derived growth factor receptor alpha (Homo sapiens) (UniProt P16234); assay: Inhibition of PDGFRA at 10 uM
[46] = molecular target: Angiopoietin-1 receptor (Homo sapiens) (UniProt Q02763); assay: Inhibition of TIE2 at 10 uM
[47] = molecular target: Atypical kinase COQ8A, mitochondrial (Homo sapiens) (UniProt Q8NI60); assay: Inhibition of ADCK3 at 10 uM
[48] = molecular target: Mitogen-activated protein kinase 3 (Homo sapiens) (UniProt P27361); assay: Inhibition of ERK1 at 10 uM
[49] = molecular target: Serine/threonine-protein kinase PLK4 (Homo sapiens) (UniProt O00444); assay: Inhibition of PLK4 at 10 uM
[50] = molecular target: Insulin-like growth factor 1 receptor (Homo sapiens) (UniProt P08069); assay: Inhibition of IGF1R at 10 uM

Sequence of Hepatocyte growth factor receptor (Homo sapiens) (P08581 whole entry): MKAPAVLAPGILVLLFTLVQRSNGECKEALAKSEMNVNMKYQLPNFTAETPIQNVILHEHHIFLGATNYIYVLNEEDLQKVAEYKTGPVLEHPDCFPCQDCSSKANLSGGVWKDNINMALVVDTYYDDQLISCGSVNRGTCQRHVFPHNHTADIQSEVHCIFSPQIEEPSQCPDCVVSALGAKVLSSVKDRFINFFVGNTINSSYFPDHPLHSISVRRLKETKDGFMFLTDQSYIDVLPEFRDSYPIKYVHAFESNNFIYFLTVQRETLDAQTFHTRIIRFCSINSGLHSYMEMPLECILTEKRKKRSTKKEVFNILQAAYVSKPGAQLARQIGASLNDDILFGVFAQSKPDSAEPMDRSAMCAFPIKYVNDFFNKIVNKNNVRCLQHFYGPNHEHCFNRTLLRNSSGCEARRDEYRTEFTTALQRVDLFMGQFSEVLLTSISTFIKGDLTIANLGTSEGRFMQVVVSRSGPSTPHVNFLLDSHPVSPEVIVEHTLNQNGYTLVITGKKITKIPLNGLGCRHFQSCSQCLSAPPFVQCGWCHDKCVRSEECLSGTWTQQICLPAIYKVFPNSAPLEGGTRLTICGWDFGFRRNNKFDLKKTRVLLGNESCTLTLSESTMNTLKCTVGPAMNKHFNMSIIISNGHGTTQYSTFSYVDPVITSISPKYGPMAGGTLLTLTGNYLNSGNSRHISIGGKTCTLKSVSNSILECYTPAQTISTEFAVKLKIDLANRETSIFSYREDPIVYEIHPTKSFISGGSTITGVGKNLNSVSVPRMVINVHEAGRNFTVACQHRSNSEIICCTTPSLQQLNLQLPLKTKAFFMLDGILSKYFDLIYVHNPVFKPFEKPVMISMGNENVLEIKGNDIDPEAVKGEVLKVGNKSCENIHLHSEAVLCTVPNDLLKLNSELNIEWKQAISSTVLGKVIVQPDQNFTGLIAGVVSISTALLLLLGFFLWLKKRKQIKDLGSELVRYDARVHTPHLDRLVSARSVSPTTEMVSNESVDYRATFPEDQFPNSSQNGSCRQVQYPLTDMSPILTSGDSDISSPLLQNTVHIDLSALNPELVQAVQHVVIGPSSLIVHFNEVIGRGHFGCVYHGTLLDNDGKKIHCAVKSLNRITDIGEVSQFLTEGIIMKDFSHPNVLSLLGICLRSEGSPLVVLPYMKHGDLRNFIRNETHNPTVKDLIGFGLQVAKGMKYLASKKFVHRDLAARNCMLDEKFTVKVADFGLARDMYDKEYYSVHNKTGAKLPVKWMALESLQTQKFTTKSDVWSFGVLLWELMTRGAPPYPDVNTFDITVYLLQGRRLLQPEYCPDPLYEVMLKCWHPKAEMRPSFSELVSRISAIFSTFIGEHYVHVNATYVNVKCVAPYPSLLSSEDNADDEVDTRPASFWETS
Sequence of Platelet-derived growth factor receptor alpha (Homo sapiens) (P16234 whole entry): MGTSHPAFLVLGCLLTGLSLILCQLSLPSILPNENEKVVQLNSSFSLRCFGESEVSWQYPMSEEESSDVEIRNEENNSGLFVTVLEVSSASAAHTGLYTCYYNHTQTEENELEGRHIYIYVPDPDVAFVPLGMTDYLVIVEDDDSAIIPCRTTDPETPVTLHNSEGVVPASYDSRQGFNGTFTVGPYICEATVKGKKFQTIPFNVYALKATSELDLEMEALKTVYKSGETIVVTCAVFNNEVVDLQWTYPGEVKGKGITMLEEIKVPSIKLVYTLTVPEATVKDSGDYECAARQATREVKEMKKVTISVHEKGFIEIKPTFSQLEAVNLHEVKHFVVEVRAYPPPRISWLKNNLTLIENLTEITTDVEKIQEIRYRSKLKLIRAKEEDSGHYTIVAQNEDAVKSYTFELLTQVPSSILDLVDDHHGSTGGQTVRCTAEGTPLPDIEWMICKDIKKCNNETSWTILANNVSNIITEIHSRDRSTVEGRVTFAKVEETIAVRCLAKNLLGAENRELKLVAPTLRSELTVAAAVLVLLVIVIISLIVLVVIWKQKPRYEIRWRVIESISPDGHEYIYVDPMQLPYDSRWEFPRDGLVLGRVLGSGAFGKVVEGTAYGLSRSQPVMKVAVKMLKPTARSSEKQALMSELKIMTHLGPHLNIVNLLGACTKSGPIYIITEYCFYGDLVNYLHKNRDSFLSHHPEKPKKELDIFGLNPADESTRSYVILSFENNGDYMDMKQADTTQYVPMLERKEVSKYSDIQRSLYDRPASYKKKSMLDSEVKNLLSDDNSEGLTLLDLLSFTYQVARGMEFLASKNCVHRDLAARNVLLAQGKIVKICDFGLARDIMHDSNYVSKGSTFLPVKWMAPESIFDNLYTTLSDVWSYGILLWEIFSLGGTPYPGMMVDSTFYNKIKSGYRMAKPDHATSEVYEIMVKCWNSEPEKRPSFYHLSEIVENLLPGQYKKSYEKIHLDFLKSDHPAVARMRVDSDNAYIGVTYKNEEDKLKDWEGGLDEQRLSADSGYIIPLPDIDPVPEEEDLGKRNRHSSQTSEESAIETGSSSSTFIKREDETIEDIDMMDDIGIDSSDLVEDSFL
Sequence of Cyclin-dependent kinase 3 (Homo sapiens) (Q00526 whole entry, looked up): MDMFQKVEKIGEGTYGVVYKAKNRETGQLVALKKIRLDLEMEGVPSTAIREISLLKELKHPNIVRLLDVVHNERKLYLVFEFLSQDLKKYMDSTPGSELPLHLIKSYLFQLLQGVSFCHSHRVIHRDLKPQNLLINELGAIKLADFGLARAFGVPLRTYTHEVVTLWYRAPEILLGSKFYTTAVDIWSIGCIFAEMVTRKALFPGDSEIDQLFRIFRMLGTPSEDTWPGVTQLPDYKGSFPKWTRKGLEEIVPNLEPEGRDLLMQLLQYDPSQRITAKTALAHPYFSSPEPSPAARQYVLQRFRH
Sequence of Dual specificity tyrosine-phosphorylation-regulated kinase 1B (Homo sapiens) (Q9Y463 whole entry, looked up): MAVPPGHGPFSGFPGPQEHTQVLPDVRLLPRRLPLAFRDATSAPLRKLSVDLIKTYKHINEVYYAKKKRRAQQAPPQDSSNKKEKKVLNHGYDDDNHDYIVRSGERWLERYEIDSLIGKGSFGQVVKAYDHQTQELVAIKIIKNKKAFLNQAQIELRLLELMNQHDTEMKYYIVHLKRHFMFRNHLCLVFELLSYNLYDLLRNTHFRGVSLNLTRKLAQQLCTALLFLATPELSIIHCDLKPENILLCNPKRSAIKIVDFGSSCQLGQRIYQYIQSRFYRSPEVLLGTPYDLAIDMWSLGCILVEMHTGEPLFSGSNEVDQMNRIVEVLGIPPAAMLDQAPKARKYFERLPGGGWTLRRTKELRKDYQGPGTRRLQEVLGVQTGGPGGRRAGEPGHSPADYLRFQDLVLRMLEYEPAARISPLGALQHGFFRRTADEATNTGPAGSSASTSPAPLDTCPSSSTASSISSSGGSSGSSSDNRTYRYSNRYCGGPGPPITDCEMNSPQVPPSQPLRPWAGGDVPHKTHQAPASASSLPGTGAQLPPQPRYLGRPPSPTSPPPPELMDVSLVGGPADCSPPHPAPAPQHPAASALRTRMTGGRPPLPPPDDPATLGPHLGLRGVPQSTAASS
Sequence of Tyrosine-protein kinase JAK2 (Homo sapiens) (O60674 whole entry): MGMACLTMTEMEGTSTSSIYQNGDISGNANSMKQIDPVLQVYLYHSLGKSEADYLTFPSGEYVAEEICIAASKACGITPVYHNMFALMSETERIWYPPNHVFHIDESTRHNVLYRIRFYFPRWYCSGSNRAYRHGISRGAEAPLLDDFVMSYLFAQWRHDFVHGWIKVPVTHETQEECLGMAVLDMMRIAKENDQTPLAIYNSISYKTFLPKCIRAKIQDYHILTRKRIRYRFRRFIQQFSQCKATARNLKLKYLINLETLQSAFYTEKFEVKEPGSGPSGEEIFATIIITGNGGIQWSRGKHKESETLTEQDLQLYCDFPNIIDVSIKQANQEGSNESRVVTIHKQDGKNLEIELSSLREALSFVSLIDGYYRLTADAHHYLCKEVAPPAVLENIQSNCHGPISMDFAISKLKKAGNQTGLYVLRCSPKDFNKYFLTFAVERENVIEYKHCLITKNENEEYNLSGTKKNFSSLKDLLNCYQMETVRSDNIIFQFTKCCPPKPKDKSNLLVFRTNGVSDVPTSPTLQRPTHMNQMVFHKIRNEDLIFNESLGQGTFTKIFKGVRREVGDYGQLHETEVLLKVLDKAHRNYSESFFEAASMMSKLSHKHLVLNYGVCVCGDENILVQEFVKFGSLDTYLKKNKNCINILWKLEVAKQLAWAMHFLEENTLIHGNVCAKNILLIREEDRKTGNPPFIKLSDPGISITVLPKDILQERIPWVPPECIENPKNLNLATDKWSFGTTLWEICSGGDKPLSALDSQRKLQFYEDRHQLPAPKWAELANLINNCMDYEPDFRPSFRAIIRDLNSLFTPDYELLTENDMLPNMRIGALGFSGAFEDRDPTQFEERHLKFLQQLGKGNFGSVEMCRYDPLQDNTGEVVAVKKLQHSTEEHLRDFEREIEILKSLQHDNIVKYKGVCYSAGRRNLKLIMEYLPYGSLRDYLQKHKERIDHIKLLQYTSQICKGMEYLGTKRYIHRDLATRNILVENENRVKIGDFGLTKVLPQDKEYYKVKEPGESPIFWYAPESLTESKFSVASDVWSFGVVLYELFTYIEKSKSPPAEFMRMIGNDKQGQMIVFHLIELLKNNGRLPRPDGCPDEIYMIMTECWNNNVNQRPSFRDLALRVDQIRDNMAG
Sequence of Dual specificity mitogen-activated protein kinase kinase 1 (Homo sapiens) (Q02750 whole entry): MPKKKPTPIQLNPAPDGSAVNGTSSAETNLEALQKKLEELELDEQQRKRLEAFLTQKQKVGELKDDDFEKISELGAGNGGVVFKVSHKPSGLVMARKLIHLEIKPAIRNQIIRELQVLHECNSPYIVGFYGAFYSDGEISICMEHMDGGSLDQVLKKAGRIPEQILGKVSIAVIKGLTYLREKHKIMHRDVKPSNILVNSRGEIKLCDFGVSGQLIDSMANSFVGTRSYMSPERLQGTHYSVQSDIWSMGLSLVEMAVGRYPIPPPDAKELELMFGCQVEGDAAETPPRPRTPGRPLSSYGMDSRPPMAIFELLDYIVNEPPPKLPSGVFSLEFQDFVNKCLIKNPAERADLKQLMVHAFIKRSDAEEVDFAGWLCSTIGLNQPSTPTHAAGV

With O=C1Nc2ccccc2/C1=C1\C(=O)Nc2ccccc21 [ISOINDIGO] the IC50 [1] was 6.7 µM, the IC50 [2] was > 30 µM and the IC50 [3] was 16.6 µM. For the same compound, the IC50 [4] was 16.3 µM, the IC50 [5] was 28.9 µM and the inhibition [6] was “inactive”.

With O=C1Nc2ccccc2/C1=C1\C(=O)N(CCc2ccc(O)cc2)c2ccccc21 the IC50 [1] was > 30 µM, the IC50 [2] was > 30 µM and the IC50 [3] was > 30 µM. For the same compound, the IC50 [4] was > 30 µM, the IC50 [5] was 19.9 µM and the inhibition [6] was “inactive”.

COc1ccc(CCN2C(=O)/C(=C3/C(=O)Nc4ccccc43)c3ccccc32)cc1 showed an IC50 [1] of 1.4 µM, an IC50 [2] of 11.6 µM and an IC50 [3] of 12 µM. The IC50 [4] was 5.4 µM, the IC50 [5] was 7.5 µM and the inhibition [6] was “inactive”.

Compound O=C1Nc2ccccc2/C1=C1\C(=O)N(CCCc2ccccc2)c2ccccc21 has an inhibition [7] of 13%, an inhibition [8] of 11% and an inhibition [9] of 5%. The inhibition [10] was 0%, the inhibition [11] was 7% and the inhibition [12] was 32%. For the same compound, the inhibition [13] was 4%, the inhibition [14] was 42% and the inhibition [15] was 0%. The inhibition [16] was 9%, the inhibition [17] was 19% and the inhibition [18] was 25%. For the same compound, the inhibition [19] was 0%, the inhibition [20] was 0% and the inhibition [21] was 0%. It also gave an inhibition [22] of 23%, an inhibition [23] of 46% and an inhibition [24] of 15%. It also gave an inhibition [25] of 0%, an inhibition [26] of 3% and an inhibition [27] of 28%. The inhibition [28] was 49%, the inhibition [29] was 0% and the inhibition [30] was 0%. It also gave an inhibition [31] of 32%, an inhibition [32] of 0% and an inhibition [33] of 35%. For the same compound, the inhibition [34] was 0%, the inhibition [35] was 12% and the inhibition [36] was 0%. The inhibition [37] was 0%, the inhibition [38] was 9% and the inhibition [39] was 0%. It also gave an inhibition [40] of 0%, an inhibition [41] of 16% and an inhibition [42] of 0%. For the same compound, the inhibition [43] was 0%, the inhibition [44] was 49% and the inhibition [45] was 0%. It also gave an inhibition [46] of 0%, an inhibition [47] of 45% and an inhibition [48] of 18%. For the same compound, the inhibition [49] was 39%, the inhibition [50] was 20% and the inhibition [6] was “inactive”.

For O=C1Nc2ccccc2C1C1C(=O)Nc2ccccc21 (configuration not stated), the inhibition [6] was “inactive”.

With O=C1Nc2ccccc2/C1=C1\C(=O)N(CCc2ccccc2)c2ccccc21 the IC50 [1] was 7.3 µM, the IC50 [2] was 12.2 µM and the IC50 [3] was 11.9 µM. For the same compound, the IC50 [4] was 6.8 µM, the IC50 [5] was 12 µM and the inhibition [6] was “inactive”.

In the case of CC(=O)Nc1ccc(CCN2C(=O)/C(=C3/C(=O)Nc4ccccc43)c3ccccc32)cc1, the IC50 [1] is reported as > 30 µM, the IC50 [2] is reported as > 30 µM and the IC50 [3] is reported as > 30 µM. For the same compound, the IC50 [4] was 19.5 µM, the IC50 [5] was 13.3 µM and the inhibition [6] was “inactive”.

For O=C1Nc2ccccc2/C1=C1\C(=O)N(c2ccccc2)c2ccccc21, the inhibition [6] was “inactive”.

For CN1C(=O)/C(=C2/C(=O)N(C)c3ccccc32)c2ccccc21, the inhibition [6] was “inactive”.

Work on O=C1Nc2cc(Br)ccc2/C1=C1/Nc2ccccc2/C1=N\O yielded an inhibition [6] of 70%.

For Cc1ccc(CCN2C(=O)/C(=C3/C(=O)Nc4ccccc43)c3ccccc32)cc1, the IC50 [1] was > 30 µM, the IC50 [2] was > 30 µM and the IC50 [3] was > 30 µM. The IC50 [4] was > 30 µM, the IC50 [5] was 19 µM and the inhibition [6] was “inactive”.

For O=Nc1c(-c2c(O)[nH]c3ccccc23)[nH]c2ccccc12 [INDIRUBIN-3-MONOXIME], the IC50 [1] was > 30 µM, the IC50 [2] was 12 µM and the IC50 [3] was 15.7 µM. It also gave an IC50 [4] of 18.2 µM and an inhibition [6] of 70%.

For CN1C(=O)/C(=C2/C(=O)Nc3ccccc32)c2ccccc21 [MEISOINDIGO], the inhibition [7] was 0%, the inhibition [8] was 0% and the inhibition [9] was 16%. For the same compound, the inhibition [10] was 0%, the inhibition [11] was 0% and the inhibition [12] was 0%. For the same compound, the inhibition [13] was 0%, the inhibition [14] was 0% and the inhibition [15] was 0%. The IC50 [1] was 6.7 µM, the inhibition [16] was 0% and the inhibition [17] was 0%. The inhibition [18] was 4%, the inhibition [19] was 7% and the inhibition [20] was 8%. It also gave an inhibition [21] of 0%, an inhibition [22] of 2% and an inhibition [23] of 11%. The inhibition [24] was 15%, the IC50 [2] was 15.4 µM and the inhibition [25] was 16%. For the same compound, the inhibition [26] was 0%, the inhibition [27] was 56% and the inhibition [28] was 15%. It also gave an inhibition [29] of 0%, an inhibition [30] of 0% and an inhibition [31] of 4%. It also gave an inhibition [32] of 4%, an inhibition [33] of 0% and an inhibition [34] of 0%. It also gave an inhibition [35] of 0%, an inhibition [36] of 3% and an inhibition [37] of 0%. The inhibition [38] was 0%, the inhibition [39] was 10% and the IC50 [3] was 12.2 µM. For the same compound, the inhibition [40] was 0%, the inhibition [41] was 0% and the IC50 [4] was 7.7 µM. It also gave an inhibition [42] of 0%, an inhibition [43] of 16% and an inhibition [44] of 8%. For the same compound, the IC50 [5] was 18.3 µM, the inhibition [45] was 0% and the inhibition [46] was 6%. It also gave an inhibition [47] of 0%, an inhibition [48] of 0% and an inhibition [49] of 12%. The inhibition [50] was 13% and the inhibition [6] was “inactive”.

In the case of O=C1Nc2ccccc2/C1=C1\C(=O)N(Cc2ccccc2)c2ccccc21, the inhibition [6] is reported as “inactive”.

For O=C1Nc2ccccc2/C1=C1\C(=O)N(CCc2ccc([N+](=O)[O-])cc2)c2ccccc21, the IC50 [1] was > 30 µM, the IC50 [2] was > 30 µM and the IC50 [3] was > 30 µM. The IC50 [4] was 7.5 µM, the IC50 [5] was 13.3 µM and the inhibition [6] was “inactive”.
